{"source": "patent US20220409587A1", "about": "“METHODS OF TREATING HIV-1 INFECTION” (BIOTRON LIMITED, priority 2019, published 2022)", "key": {"NK cells": {"test_system": "NK cells", "experiment": "Phase 2 study: NK cell numbers by flow cytometry", "format": "in vivo, human", "conditions": "BIT225 + ART, 12-week treatment", "experimental": "(§1) A Phase 2, multi-centre, randomized, placebo-controlled, double-blind study of BIT225 in combination with ART (Atripla—efavirenz/emtricitabine/tenofovir DF) was undertaken in patients with HIV-1 infection that were treatment-naive. Patients were randomized into two groups on a 2:1 basis, with one group receiving BIT225 (100 mg QD; 6 patients: placebo; 3 patients), and one group receiving BIT225 (200 mg QD, 18 patients: placebo; 9 patients), with a total of 36 patients enrolled in the trial. The 100 mg BIT225 group was primarily included for detailed PK analyses due to limitations on the quantity of blood that could be drawn at time points coinciding with analyses of viral load decay, which were limited to the 200 mg cohort. All subjects received the standard dose of ART in addition to 12 weeks BIT225 or placebo study treatment. At the conclusion of the trial, patients remained on ART as per standard treatment protocols. HIV-1-infected subjects, males and females, aged 18 to 65 years inclusive, who were naive to ART were recruited. Individuals had HIV-1 RNA>5,000 copies/mL and CD4^+ T cell count>100 cells/mm^3.\n(§2) There were two treatment cohorts. The first cohort received 100 mg capsule of BIT225 or placebo QD with ART for 12 weeks. Cohort 2 were given two 100 mg capsules BIT225 (200 mg BIT225) or placebo QD with ART. ART was 1 fixed dose combination tablet of Atripla.\nAnalyses for cell populations (T cells and NK cells) were performed in real time by flow cytometry (CD4^+, CD8^+, CD38^+, and HLA-DR^+ for T cells, and CD16^+, CD45^+ and CD56^+ for NK cells). ELISA assays were run for sCD163 and Th17 related cytokines. Immune activation markers measured by flow cytometry were performed in real time alongside CD4^+, CD8^+ and CD14^+ enumeration at HIV-NAT laboratory, Bangkok Thailand."}, "[1]": {"test_system": "CD86 on MDM infected with HIV-1 NL4-3", "experiment": "Plasma membrane CD86 expression on HIV-1 NL4-3 infected MDM, flow cytometry", "format": "cell-based, human", "experimental": "(§3) Method of virus stock generation is as described by Bobardt et al., PNAS, 2008; 105(14):5525-5530. Briefly, 293T cells were transfected with proviral plasmid (9 μg) and vesicular stomatitis virus G (VSV-G) envelope plasmid (1 μg). At day 2, VSV-G pseudotyped viruses (5 μg of p24) were harvested and used to acutely infect Jurkat cells (2×10^6 cells). Two days after infection, viruses were harvested, and p24 content was measured by ELISA (PerkinElmer). Viral infections were conducted in triplicate with 10 or 100 ng of p24 derived from transfected 293T cells. The following proviral constructs were used: wild-type HIV-1 pNL4.3 […] tropic[WT], pNL4.3 ANef, pNL4.3 AVpu, pNL4.3 ANefAVpu, and HIV-1 pBaL-1 CCR5(R5) tropic[WT].\nBlood-derived CD4^+ T lymphocytes and MDM were isolated as described in Saphire et al., J Virol 2001, 75:9187-9200. CD4^+ T cells and monocytes were extracted from the blood of three donors that were CCR5-Delta32 negative. […]\n(§4) Cells were treated with 3 μM BIT225 or DMSO control, and expression of CD28, CCR7, CD80 and CD86 measured by flow cytometry at 24, 48 and 72 hour time points. […]"}, "IL-1 B": {"test_system": "IL-1 B", "experiment": "Phase 2 study: plasma Th17 related cytokines (MSD U-Plex), IL-1 B", "format": "in vivo, human", "conditions": "BIT225 cohort vs placebo (data not shown)", "experimental": "as §1, with “At the conclusion of the trial, patients remained on ART as per standard treatment protocols. HIV-1-infected subjects, males and females, aged 18 to 65 years inclusive, who were naive to ART were recruited. Individuals had HIV-1 RNA>5,000 copies/mL and CD4^+ T cell count>100 cells/mm^3.” left out\n(§5) Th17 cells regulate other immune cells, specifically neutrophils and macrophages, by secreting a variety of cytokines in response to pathogens. Plasma samples were analysed to determine the level of the Th17 related cytokines (IL-21, IFN-γ, IL-1p, IL-6, IL-10, IL-17A, IL-17E/IL-25, IL-17F, IL-22, and TNF-α) during the 12 week treatment period using electro-chemiluminescence MSD U-Plex Biomarker Group Th17 (Human Combo 2) Human Multiplex Assay (MesoScaleDiscovery, MD, USA)."}, "[2]": {"experiment": "Phase 2 study: safety and tolerability", "format": "in vivo, human", "experimental": "as §1, §2\nThe safety of the experimental treatments was assessed by monitoring adverse events, vital signs, ECG parameters, clinical laboratory tests (haematology, clinical chemistry, coagulation and urinalysis) and physical examinations."}, "HIV-1": {"test_system": "HIV-1", "experiment": "Phase 2 study: plasma HIV-1 viral load decay (Roche COBAS TaqMan HIV-1)", "format": "in vivo, human", "conditions": "200 mg BIT225 QD + ART vs placebo QD + ART, 12 weeks, treatment-naive HIV-1 patients", "experimental": "as §1\n(§6) There were two treatment cohorts. The first cohort received 100 mg capsule of BIT225 or placebo QD with ART for 12 weeks. […]\nHIV-1 plasma viral load was determined in real time by Roche COBAS TaqMan HIV-1 currently approved version (Roche Diagnostics)."}, "TNF-α": {"test_system": "TNF-α", "experiment": "Phase 2 study: plasma Th17 related cytokines (MSD U-Plex), TNF-α", "format": "in vivo, human", "conditions": "BIT225 cohort vs placebo (data not shown)", "experimental": "as §1, with “At the conclusion of the trial, patients remained on ART as per standard treatment protocols. HIV-1-infected subjects, males and females, aged 18 to 65 years inclusive, who were naive to ART were recruited. Individuals had HIV-1 RNA>5,000 copies/mL and CD4^+ T cell count>100 cells/mm^3.” left out\nas §5"}, "[3]": {"test_system": "CD28 on CD4^+ T cells infected with HIV-1 NL4-3", "experiment": "Plasma membrane CD28 expression on HIV-1 NL4-3 infected CD4+ T cells, flow cytometry", "format": "cell-based, human", "conditions": "3 μM BIT225, WT HIV-1 NL4-3 infected cells, up to 72 h; dependent on Vpu expression", "experimental": "as §3\n(§7) CD4^+ T cell isolation as previously described by Geijtenbeek et al., Cell, 2000, 100:587-597. Human PBMC were purified from fresh blood by banding on Ficoll-Hypaque (30 min, 800 g, 25° C.; Amersham Biosciences). Primary human CD4^+ T cells were purified from PBMC by positive selection with anti-CD4 Dynabeads and subsequent release using Detachabead (Dynal Biotech). […]\nas §4"}, "[4]": {"test_system": "CCR7 on CD4^+ T cells infected with HIV-1 NL4-3", "experiment": "Plasma membrane CCR7 expression on HIV-1 NL4-3 infected CD4+ T cells, flow cytometry", "format": "cell-based, human", "experimental": "as §3, §7, §4"}, "IL-10": {"test_system": "IL-10", "experiment": "Phase 2 study: plasma Th17 related cytokines (MSD U-Plex), IL-10", "format": "in vivo, human", "conditions": "BIT225 cohort vs placebo (data not shown)", "experimental": "as §1, with “At the conclusion of the trial, patients remained on ART as per standard treatment protocols. HIV-1-infected subjects, males and females, aged 18 to 65 years inclusive, who were naive to ART were recruited. Individuals had HIV-1 RNA>5,000 copies/mL and CD4^+ T cell count>100 cells/mm^3.” left out\nas §5"}, "soluble CD163 (sCD163)": {"test_system": "soluble CD163 (sCD163)", "experiment": "Phase 2 study: plasma sCD163 by Macro163 ELISA", "format": "in vivo, human", "experimental": "as §1, §6\nThe macrophage and monocyte activation marker sCD163 was measured in plasma by Macro163™ ELISA (IQ Products, Groningen, The Netherlands)."}}, "note": "Entries after “also recorded” stand apart in the source; their conditions may differ.", "data": [{"molecule": "Cn1cc(-c2cccc3cc(C(=O)NC(=N)N)ccc23)cn1", "note": "[BIT225, N-carbamimidoyl-5-(1-methylpyrazol-4-yl)naphthalene-2-carboxamide]", "values": [{"measurement": "NK cell numbers during treatment versus placebo", "setting": "NK cells", "value": "remained higher"}, {"measurement": "Plasma membrane CD86 expression on MDM", "setting": "[1]; 3 μM BIT225, WT or ΔNef virus infected cells", "value": "partial restoration"}, {"measurement": "Plasma membrane CD86 expression on MDM", "setting": "[1]; 3 μM BIT225, ΔNefΔVpu HIV-1 NL4-3 double mutant", "value": "no observable effect"}, {"measurement": "IL-1 B production versus placebo", "setting": "IL-1 B", "value": "no statistical differences"}, {"measurement": "Tolerability / safety", "setting": "[2]; 100 and 200 mg QD cohorts with ART, 12 weeks", "value": "safe and well tolerated"}, {"measurement": "QTcB in one discontinued subject (mild QTcB prolongation, Day 17), considered not related to BIT225 or Atripla", "setting": "[2]; BIT225 100 mg cohort", "value": "> 480", "unit": "ms"}, {"measurement": "Subjects who discontinued the study early due to AEs", "setting": "[2]; BIT225 100 mg cohort", "value": "Two"}, {"measurement": "Serious AEs or deaths", "setting": "[2]; all cohorts", "value": "no serious AEs (SAEs) or deaths"}, {"measurement": "Plasma HIV-1 RNA decline versus placebo", "setting": "HIV-1", "value": "declined in a similar manner"}, {"measurement": "TNF-α versus placebo", "setting": "TNF-α", "value": "no statistical differences"}, {"measurement": "CD28 expression on CD4+ T cells", "setting": "[3]", "value": "partial restoration"}, {"measurement": "CCR7 expression on CD4+ T cells", "setting": "[4]; 3 μM BIT225, WT HIV-1 NL4-3-infected cells, dependent on Vpu expression", "value": "partial restoration"}, {"measurement": "CCR7 downregulation by Nef expression alone", "setting": "[4]; 3 μM BIT225, ΔVpu virus", "value": "not affected"}, {"measurement": "IL-10 levels versus placebo over 12 weeks", "setting": "IL-10", "value": "not statistically significant"}, {"measurement": "Linear model estimate β1 of larger overall decrease in sCD163 for BIT225 versus placebo", "setting": "soluble CD163 (sCD163); 200 mg BIT225 QD + ART vs placebo + ART, 12 weeks, ±SE, P=0.036", "value": "208 ± 99", "unit": "ng/mL"}, {"measurement": "sCD163 over 12 weeks compared to ART alone", "setting": "soluble CD163 (sCD163); BIT225 + ART vs ART + placebo", "value": "significantly reduced; also recorded: statistically significant decline"}]}]}
